Several values for one entry are separate records, joined by “and”; a condition that tells them apart may be missing. Identical values can stand only once.
Experiments:
hMOR = target: T1, hMOR (Homo sapiens, UniProt P35372); experiment: CAMYEL BRET cAMP agonist assay at hMOR; assay type: cell-based; details: hMOR, single replicates, source data Fig 6c, listed as C11-F-7OH (22)
T1 construct: expressed in transfected cells; plasmid a gift from Dr. Nevin Lambert

mMOR [1] = target: T2, mMOR (Mus musculus, UniProt P42866); experiment: CAMYEL BRET cAMP agonist assay at mMOR; assay type: cell-based; details: mMOR; for cAMP %: single replicates, source data Fig 6b, listed as C11-F-7OH (22)
T2 construct: signal peptide (heterologous, not specified) (N); expressed in transfected cells; pcDNA3.1(+) construct made in house

mMOR [2] = target: T2, mMOR; experiment: CAMYEL BRET antagonism assay at mMOR (inhibition of DAMGO); assay type: cell-based; details: for Antagonist activity at mMOR, raw signal (single replicate values): source data of Fig 8a and Table 5, listed as C11-F-7OH (22);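 for Antagonist activity at mMOR, raw signal (single replicate values): BRET signal rises as cAMP falls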
mMOR [3] = target: T2, mMOR; experiment: BRET-based Nb33 recruitment assay at mMOR; assay type: cell-based; details: for Nb33 BRET assay at mMOR, response: single replicates, source data Fig 7a, listed as C11-F-7OH (22)
mDOR [4] = target: T3, mDOR (Mus musculus, UniProt P32300); experiment: CAMYEL BRET cAMP agonist assay at mDOR; assay type: cell-based; details: for Agonist activity of 7OH analogs at mDOR: single replicate values, Supplementary Figure 7B
T3 construct: expressed in transfected cells

mMOR [5] = target: T2, mMOR; experiment: [125I]BNtxA radioligand competition binding, mouse MOR; details: mean ± SEM, n = 3; [125I]BNtxA; read-out: Ki ± SEM mMOR
hDOR = hDOR (Homo sapiens, UniProt P41143); experiment: CAMYEL BRET cAMP agonist assay at hDOR; assay type: cell-based; details: for Agonist activity of 7OH analogs at hDOR: single replicate values, Supplementary Figure 7A
mDOR [6] = target: T3, mDOR; experiment: [125I]BNtxA radioligand competition binding, mouse DOR; details: mean ± SEM, n = 3; [125I]BNtxA; read-out: Ki ± SEM mDOR
[7] = Log[drug] (M) -13, cAMP inhibition as % of DAMGO

Chain of hDOR (P41143 whole entry): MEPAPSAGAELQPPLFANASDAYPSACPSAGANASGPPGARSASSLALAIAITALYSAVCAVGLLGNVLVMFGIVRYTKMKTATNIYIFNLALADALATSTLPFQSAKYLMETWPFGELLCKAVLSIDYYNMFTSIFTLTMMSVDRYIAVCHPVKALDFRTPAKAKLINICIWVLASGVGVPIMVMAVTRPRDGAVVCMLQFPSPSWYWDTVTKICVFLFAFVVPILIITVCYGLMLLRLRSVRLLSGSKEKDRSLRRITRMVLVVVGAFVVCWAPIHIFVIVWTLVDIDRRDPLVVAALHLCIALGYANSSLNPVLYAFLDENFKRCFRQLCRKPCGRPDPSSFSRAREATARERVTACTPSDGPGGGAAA
T1 sequence (P35372 whole entry): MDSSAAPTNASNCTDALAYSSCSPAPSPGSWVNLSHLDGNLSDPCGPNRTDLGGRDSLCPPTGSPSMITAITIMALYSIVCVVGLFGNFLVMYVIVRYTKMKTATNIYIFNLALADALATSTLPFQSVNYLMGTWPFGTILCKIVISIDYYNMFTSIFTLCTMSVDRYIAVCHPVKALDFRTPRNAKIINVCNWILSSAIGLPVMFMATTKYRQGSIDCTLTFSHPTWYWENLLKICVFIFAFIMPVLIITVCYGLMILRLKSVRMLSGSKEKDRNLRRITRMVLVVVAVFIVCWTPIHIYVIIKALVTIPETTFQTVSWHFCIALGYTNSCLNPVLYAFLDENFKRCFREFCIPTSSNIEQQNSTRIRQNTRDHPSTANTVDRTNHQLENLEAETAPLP
T2 sequence (P42866 whole entry): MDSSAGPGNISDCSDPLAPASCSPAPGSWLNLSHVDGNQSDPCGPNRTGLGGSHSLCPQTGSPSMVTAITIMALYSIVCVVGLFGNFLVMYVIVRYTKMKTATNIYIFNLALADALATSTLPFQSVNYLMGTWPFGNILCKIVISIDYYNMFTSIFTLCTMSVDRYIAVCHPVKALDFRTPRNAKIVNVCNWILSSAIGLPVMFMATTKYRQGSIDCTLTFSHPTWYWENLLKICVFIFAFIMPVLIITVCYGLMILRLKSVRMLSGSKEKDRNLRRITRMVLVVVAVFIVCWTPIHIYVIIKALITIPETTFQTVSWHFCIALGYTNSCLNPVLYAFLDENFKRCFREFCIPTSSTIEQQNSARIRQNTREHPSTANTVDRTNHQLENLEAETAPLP
T3 sequence (P32300 whole entry): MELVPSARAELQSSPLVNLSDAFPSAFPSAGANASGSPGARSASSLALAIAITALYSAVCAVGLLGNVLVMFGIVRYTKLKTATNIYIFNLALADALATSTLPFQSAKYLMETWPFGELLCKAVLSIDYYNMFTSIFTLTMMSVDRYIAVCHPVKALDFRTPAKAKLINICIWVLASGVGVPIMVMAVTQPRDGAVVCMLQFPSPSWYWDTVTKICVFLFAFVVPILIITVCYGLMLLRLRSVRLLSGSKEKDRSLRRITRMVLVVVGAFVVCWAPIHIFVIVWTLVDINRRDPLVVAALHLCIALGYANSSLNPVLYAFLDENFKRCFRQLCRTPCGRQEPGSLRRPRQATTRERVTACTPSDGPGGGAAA

CC[C@@H]1CN2CC[C@@]3(O)C(=Nc4cc(F)cc(OC)c43)[C@@H]2C[C@@H]1/C(=C\OC)C(=O)OC [11-F-7OH (22), 11-Fluoro-7-hydroxymitragynine]
cAMP % (hMOR; Log[drug] (M) -9): 4.113% and -7.3719% and 5.178% and 7.448% and -11.6959% and 4.5476% and -1.276% and -3.182% and 19.3939% | cAMP % (hMOR; Log[drug] (M) -10): 2.241% and -1.74% and -0.501% and 4.727% and -5.3691% and 0.6426% and 5.237% and 2.017% and 7.517% | cAMP % (hMOR; Log[drug] (M) -11): 9.244% and 1.716% and -4.082% and 4.12% and 6.65% and 8.68% and 7.357% and 0.1804% and -7.538% | cAMP % (hMOR; [7]): 3.279% and -3.532% and 2.642% and -0.9485% and 1.819% and 3.865% and 2.979% and -0.05442% and 0.9166% | cAMP % (mMOR [1]; Log[drug] (M) -5): 18.6612% and 13.4113% and 8.551% and 30.7876% and 22.9326% and 28.8572% and 20.3955% and 21.355% and 24.4984% | cAMP % (mMOR [1]; Log[drug] (M) -6): 25.4304% and 7.798% and 14.3775% and 23.1589% and 22.9335% and 14.5614% and 26.2834% and 10.6621% and 13.744% | cAMP % (mMOR [1]; Log[drug] (M) -7): 4.791% and 10.9715% and 7.661% and 21.2718% and 20.4101% and 18.8827% and 13.0494% and 8.164% and 16.1975% | cAMP % (mMOR [1]; Log[drug] (M) -8): 1.666% and 6.134% and 7.138% and 7.653% and 6.95% and 8.768% and 3.363% and -0.1101% and 16.7433% | cAMP % (mMOR [1]; Log[drug] (M) -9): 0.8145% and -7.096% and 6.2815% and 3.889% and -6.162% and 2.273% and -4.16% and 0.06827% and 4.092% | cAMP % (mMOR [1]; Log[drug] (M) -10): 13.6379% and 11.7751% and 16.0473% and 16.5566% and -2.169% and 7.345% and 0.7238% and 2.035% and 11.7782% | cAMP % (mMOR [1]; Log[drug] (M) -11): 20.0905% and 12.8035% and 2.268% and 1.246% and -1.253% and 18.3526% and 6.666% and -0.8467% and -5.17% | cAMP % (mMOR [1]; [7]): 13.7634% and 17.6649% and 9.384% and 11.7249% and -6.349% and 6.202% and -0.02358% and 4.732% and 0.04545% | Emax (mMOR [1]; maximal inhibitory effect on cAMP levels relative to DAMGO): 21% | EC50 (mMOR [1]; n = 3, read-out: EC50): 97 nM | IC50 (mMOR [2]): 260 nM | Antagonist activity at mMOR, raw signal (single replicate values) (mMOR [2]; Log[drug] (M) -5): 0.03322 and 0.03306 and 0.04505 and 0.03409 and 0.04171 and 0.03584 and 0.0591 and 0.05619 and 0.05325 | Antagonist activity at mMOR, raw signal (single replicate values) (mMOR [2]; Log[drug] (M) -6): 0.06086 and 0.0551 and 0.06302 and 0.07276 and 0.06512 and 0.0766 and 0.06642 and 0.06116 and 0.08827 | Antagonist activity at mMOR, raw signal (single replicate values) (mMOR [2]; Log[drug] (M) -7): 0.1571 and 0.1681 and 0.1534 and 0.1529 and 0.1704 and 0.1581 and 0.1507 and 0.1426 and 0.1477 | Antagonist activity at mMOR, raw signal (single replicate values) (mMOR [2]; Log[drug] (M) -8): 0.2123 and 0.2016 and 0.2091 and 0.1893 and 0.2024 and 0.2047 and 0.1631 and 0.1656 and 0.156 | Antagonist activity at mMOR, raw signal (single replicate values) (mMOR [2]; Log[drug] (M) -9): 0.2046 and 0.2165 and 0.2136 and 0.191 and 0.2101 and 0.1873 and 0.1659 and 0.1752 and 0.1707 | Antagonist activity at mMOR, raw signal (single replicate values) (mMOR [2]; Log[drug] (M) -10): 0.2086 and 0.2076 and 0.2154 and 0.2091 and 0.201 and 0.211 and 0.1814 and 0.1819 and 0.178 | Antagonist activity at mMOR, raw signal (single replicate values) (mMOR [2]; Log[drug] (M) -11): 0.2091 and 0.1929 and 0.2264 and 0.2001 and 0.2059 and 0.2094 and 0.1761 and 0.1779 and 0.1909 | Nb33 BRET assay at mMOR, response (mMOR [3]; Log[drug] (M) -5): 6.583 and -1.77 and -4.813 and -2.626 and -1.32 and 4.487 and 18.3783 and 26.5383 and 5.598 and 5.585 and 0.2094 and 5.293 | Nb33 BRET assay at mMOR, response (mMOR [3]; Log[drug] (M) -6): 0.6338 and 14.8405 and 14.4384 and 1.573 and -3.3849 and 2.324 and 3.469 and 13.567 and 11.5483 and 6.799 and 5.845 and 11.4048 | Nb33 BRET assay at mMOR, response (mMOR [3]; Log[drug] (M) -7): 2.525 and -4.237 and 5.069 and -13.128 and 0.1228 and -1.54 and 7.378 and 4.077 and 0.2648 and 1.54 and -4.687 and 9.074 | Nb33 BRET assay at mMOR, response (mMOR [3]; Log[drug] (M) -8): 0.2904 and 1.436 and 1.352 and 1.678 and 1.793 and -7.9215 and -6.277 and -6.486 and -0.06826 and 14.2168 and -0.06924 and 8.399 | Nb33 BRET assay at mMOR, response (mMOR [3]; Log[drug] (M) -9): -2.727 and 5.58 and 0.2255 and 4.116 and 4.119 and -5.256 and -3.689 and -9.68 and 0.5281 and 3.825 and 2.847 and -6.097 | Nb33 BRET assay at mMOR, response (mMOR [3]; Log[drug] (M) -10): 3.545 and 0.5186 and 8.52 and 1.379 and 2.542 and 3.339 and 3.8632 and -1.052 and 9.1269 and 14.9582 and 6.739 and 3.3642 | Nb33 BRET assay at mMOR, response (mMOR [3]; Log[drug] (M) -11): 21.3407 and -2.769 and 15.6698 and -2.476 and 2.836 and -0.3605 and -4.304 and -16.5097 and 20.8133 and -2.923 and -1.5757 and 4.499 | Emax mMOR (mMOR [3]; Nb33 BRET, relative to DAMGO): near the detection limit of the assay | Emax (mMOR [3]; read-out: Emax mMOR, Nb33 BRET, relative to DAMGO): < 10% | Agonist activity of 7OH analogs at mDOR (mDOR [4]; Log[drug] (M) -5): 47.1654 and 47.1068 and 50.635 and 37.9412 and 42.0474 and 46.3733 and 28.2147 and 32.1025 and 39.5821 | Agonist activity of 7OH analogs at mDOR (mDOR [4]; Log[drug] (M) -6): 47.099 and 41.9872 and 38.3786 and 51.107 and 48.5979 and 35.3577 and 31.3142 and 12.8186 and 22.449 | Agonist activity of 7OH analogs at mDOR (mDOR [4]; Log[drug] (M) -7): 30.1688 and 32.9372 and 28.2956 and 32.0377 and 31.8373 and 22.4143 and 6.1677 and 13.5479 and 12.0733 | Agonist activity of 7OH analogs at mDOR (mDOR [4]; Log[drug] (M) -8): 13.6765 and -5.445 and -5.108 and 13.4452 and 4.719 and 1.33 and -3.9215 and 5.792 | Agonist activity of 7OH analogs at mDOR (mDOR [4]; Log[drug] (M) -9): -4.727 and 10.4426 and 11.2028 and 10.7963 and -1.115 and -6.036 and 3.188 and 1.136 and -3.325 | Agonist activity of 7OH analogs at mDOR (mDOR [4]; Log[drug] (M) -10): -4.225 and 3.531 and 0.6939 and 1.589 and -3.887 and 2.298 and 4.3674 and 7.155 and 10.722 | Agonist activity of 7OH analogs at mDOR (mDOR [4]; Log[drug] (M) -11): 12.0117 and 1.607 and 13.3008 and 5.9086 and 13.4698 and 3.259 and 9.679 and 6.216 and 9.4253 | Agonist activity of 7OH analogs at mDOR (mDOR [4]; Log[drug] (M) -13): -0.8332 and 15.6965 and -5.824 and 1.284 and 2.644 and 6.574 and -5.56 and 1.8034 and 3.757 | EC50 (mDOR [4]; mDOR cAMP BRET, read-out: EC50): 102 nM | Emax (mDOR [4]; read-out: Emax): 41% | Ki (mMOR [5]): 13.7 ± 1 nM | Agonist activity of 7OH analogs at hDOR (hDOR; Log[drug] (M) -5): 35.2154 and 37.8271 and 20.1668 and 20.0459 and 27.5701 and 32.2497 and 21.4666 and 22.179 and 20.5682 | Agonist activity of 7OH analogs at hDOR (hDOR; Log[drug] (M) -6): 34.2535 and 17.385 and 29.3707 and 32.2245 and 19.3851 and 24.4275 and 22.3041 and 14.4734 and 13.6453 | Agonist activity of 7OH analogs at hDOR (hDOR; Log[drug] (M) -7): 30.3483 and 21.8663 and 22.0325 and 12.2379 and 10.9328 and 13.3432 and 3.216 and 7.058 and 2.651 | Agonist activity of 7OH analogs at hDOR (hDOR; Log[drug] (M) -8): 2.89 and -16.6078 and 13.7181 and 1.455 and 8.915 and -8.089 and -4.58 and 2.715 and 18.3397 | Agonist activity of 7OH analogs at hDOR (hDOR; Log[drug] (M) -9): 8.34 and 5.8475 and -3.905 and -8.29 and 12.1949 and 6.438 and 2.013 and 5.417 | Agonist activity of 7OH analogs at hDOR (hDOR; Log[drug] (M) -10): 4.091 and -4.63 and 8.526 and 11.2871 and -1.147 and 9.891 and 2.3909 and 3.977 and 19.4184 | Agonist activity of 7OH analogs at hDOR (hDOR; Log[drug] (M) -11): -7.5527 and 10.3457 and 6.839 and 6.552 and 7.529 and 1.024 and 18.8483 and 4.15 and -0.7846 | Agonist activity of 7OH analogs at hDOR (hDOR; Log[drug] (M) -13): -0.5197 and 3.103 and 0.8755 and 5.994 and 5.535 and -9.529 and 9.805 and -0.2765 | EC50 (hDOR; hDOR cAMP BRET, read-out: EC50): 151 nM | Emax (hDOR; read-out: Emax): 26% | Ki (mDOR [6]): 35.8 ± 2 nM

Reference: PMC8219695 (Nature Communications, 2021)
